Assay results from patent US11780849B2, “Imino sulfanone inhibitors of ENPP1” (Volastra Therapeutics, Inc., priority 2020, dated 2023).
Where two headings read alike, the source gives them in different places.

Key:
ENPP-1 ECD = ENPP-1 ECD (Homo sapiens (Human), UniProt P22413); assay: Assay 2: inhibition of ENPP1 hydrolysis of 2′,3′-cGAMP (AMP-Glo, […] enzyme)
Protocol: Assay 2: Compared to the conditions in Assay 1, this assay has a larger dynamic range and ensures the system is under steady-state conditions by reducing the enzyme concentration in the assay.
Test compounds were plated in a 3× dilution scheme in a 384 well plate. […] AMP Detection solution (10 μL) was added to each well, the plate centrifuged and incubated for 60 min.

[1] = target: ENPP1 on MDA-MB-231 cells (Homo sapiens (Human), UniProt P22413); assay: Assay 3: inhibition of ENPP1 hydrolysis of AMP p-nitrophenyl ester on MDA-MB-231 cells
ENPP1 on MDA-MB-231 cells, sequence (P22413 whole entry): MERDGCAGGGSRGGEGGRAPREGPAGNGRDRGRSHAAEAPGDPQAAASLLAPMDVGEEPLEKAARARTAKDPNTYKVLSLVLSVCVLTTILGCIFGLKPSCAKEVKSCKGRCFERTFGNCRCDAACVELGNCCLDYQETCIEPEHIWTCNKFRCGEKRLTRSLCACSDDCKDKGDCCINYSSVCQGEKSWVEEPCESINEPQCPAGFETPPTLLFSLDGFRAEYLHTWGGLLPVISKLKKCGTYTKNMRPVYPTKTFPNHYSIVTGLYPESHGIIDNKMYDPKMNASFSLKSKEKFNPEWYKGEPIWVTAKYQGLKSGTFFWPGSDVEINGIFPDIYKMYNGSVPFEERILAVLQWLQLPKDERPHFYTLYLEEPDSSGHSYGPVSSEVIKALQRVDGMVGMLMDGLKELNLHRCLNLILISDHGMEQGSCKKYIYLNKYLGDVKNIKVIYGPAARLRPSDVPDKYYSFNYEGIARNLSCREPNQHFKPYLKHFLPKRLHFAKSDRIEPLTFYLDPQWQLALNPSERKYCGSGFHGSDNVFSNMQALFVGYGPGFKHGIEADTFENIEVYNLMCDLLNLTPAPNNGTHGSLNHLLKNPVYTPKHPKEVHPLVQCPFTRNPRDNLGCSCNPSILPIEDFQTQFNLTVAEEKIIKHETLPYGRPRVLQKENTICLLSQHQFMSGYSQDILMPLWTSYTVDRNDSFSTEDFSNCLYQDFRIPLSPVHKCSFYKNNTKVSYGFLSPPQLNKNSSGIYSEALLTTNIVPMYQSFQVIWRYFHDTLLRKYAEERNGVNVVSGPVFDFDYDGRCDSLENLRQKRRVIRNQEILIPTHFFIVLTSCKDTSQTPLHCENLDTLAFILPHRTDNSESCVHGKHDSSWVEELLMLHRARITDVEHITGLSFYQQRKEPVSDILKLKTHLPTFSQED
Protocol: Hydrolysis of the p-nitrophenyl ester of AMP (pNP-AMP), an isostere of ATP, is selectively catalyzed by ENPP1 in the supernatant of MDA-MB-231 cell cultures. Inhibition of the hydrolysis of pNP-AMP by MDA-MB-231 at pH 7.4 and 37° C., is a good model of physiologically relevant activity of membrane-bound ENPP1 at disease-relevant expression levels.
MDA-MB-231 cells were harvested using TypLE Express Enzyme digestion and suspended in 100 μL of Leibovitz's L-15 Medium, 20% FBS, seeding the cells in a 96-well assay plate with 4.5×10^4 cells/well. Cells were incubated at 37° C. with 1% CO2 for 24 h. In a separate dilution plate, 2× of top dose of compound was prepared in phenol-red free 1640 medium without FBS and then 1:3 serial diluted in the same medium. The cell culture medium of L15 medium was aspirated carefully and cells were washed with PBS once, and 50 μL per well of test compound or DMSO blank were added to the assay plate. Substrate mix (50 μL; 0.5 mM pNP-AMP in phenol-red free 1640 media without FBS) was added for a pNP-AMP final concentration of 0.25 mM. The system was incubated at 37° C. for 3 h.

[2] = Assay 2 (KI), inhibition of ENPP1 hydrolysis of 2′,3′-cGAMP, no unit in Table 18 (Table 17 legend for this assay uses nM)
[3] = read-out: Assay 2 (KI), inhibition of ENPP1 hydrolysis of 2′,3′-cGAMP, no unit in Table 18 (Table 17 legend for this assay uses nM)
[4] = read-out: Assay 3 (KI, app), apparent KI from IC50 via Cheng/Prusoff, pNP-AMP […], MDA-MB-231 cells, pH 7.4, 37° C., 3 h, unit inferred
[5] = read-out: Assay 2 (KI), ENPP1 hydrolysis of 2′,3′-cGAMP, AMP-Glo, […] ENPP-1, 24 μM cGAMP
[6] = Assay 2 (KI), ENPP1 hydrolysis of 2′,3′-cGAMP, AMP-Glo, […] ENPP-1, 24 μM cGAMP

ENPP-1 ECD, sequence (P22413 98-925): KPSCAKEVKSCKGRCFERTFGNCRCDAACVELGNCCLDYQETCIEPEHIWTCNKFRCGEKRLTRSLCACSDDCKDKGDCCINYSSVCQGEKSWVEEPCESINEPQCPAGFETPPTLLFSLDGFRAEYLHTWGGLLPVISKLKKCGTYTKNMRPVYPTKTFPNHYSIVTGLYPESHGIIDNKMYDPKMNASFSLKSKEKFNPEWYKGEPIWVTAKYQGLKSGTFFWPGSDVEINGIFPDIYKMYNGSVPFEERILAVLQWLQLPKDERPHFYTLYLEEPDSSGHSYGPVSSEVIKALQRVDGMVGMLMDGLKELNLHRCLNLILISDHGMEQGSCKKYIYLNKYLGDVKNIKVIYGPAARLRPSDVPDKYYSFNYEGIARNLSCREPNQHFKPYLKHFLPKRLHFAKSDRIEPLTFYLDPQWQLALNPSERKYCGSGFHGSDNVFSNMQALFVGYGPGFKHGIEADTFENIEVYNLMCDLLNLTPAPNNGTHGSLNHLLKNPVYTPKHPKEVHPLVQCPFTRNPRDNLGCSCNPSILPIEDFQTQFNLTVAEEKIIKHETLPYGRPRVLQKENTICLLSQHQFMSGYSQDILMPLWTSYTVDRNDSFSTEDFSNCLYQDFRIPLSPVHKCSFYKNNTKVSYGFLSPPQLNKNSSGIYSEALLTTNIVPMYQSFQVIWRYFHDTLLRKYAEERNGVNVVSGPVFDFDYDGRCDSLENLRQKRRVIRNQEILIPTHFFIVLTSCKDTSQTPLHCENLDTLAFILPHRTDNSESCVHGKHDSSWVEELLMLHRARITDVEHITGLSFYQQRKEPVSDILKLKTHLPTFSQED

Row | Structure (SMILES) | Ki (ENPP-1 ECD; [2]) | Ki [1] | Ki (ENPP-1 ECD; [3]) | Ki [1, 4] | Ki (ENPP-1 ECD; [5]) | Ki (ENPP-1 ECD; [6])
1 | COc1cccc2c(N3CCC(CS(C)(=N)=O)CC3)c(C#N)cnc12 (stereo not drawn) [Compound 179, 4-(4-{[imino(methyl)oxo-λ^6-sulfanyl]methyl}piperidin-1-yl)-8-methoxyquinoline-3-carbonitrile] | 0.048 nM | 3.3 nM |  |  |  | 
2 | CS(=N)(=O)CC1CCN(c2c(C#N)cnc3c(OCF)cccc23)CC1 (stereo not drawn) [Compound 200, 8-(fluoromethoxy)-4-(4-{[imino(methyl)oxo-λ^6-sulfanyl]methyl}piperidin-1-yl)quinoline-3-carbonitrile] | 0.019 nM | 0.41 nM |  |  |  | 
3 | COc1cccc2c(N3CCC(CS(=N)(=O)C4CC4)CC3)ncnc12 (stereo not drawn) [Compound 190, cyclopropyl(imino){[1-(8-methoxyquinazolin-4-yl)piperidin-4-yl]methyl}-λ^6-sulfanone] | 0.19 nM | 7.3 nM |  |  |  | 
4 | COc1cc2nncc(N3CCC4(CC3)CCN(S(=N)(=O)C3CC3)C4)c2cc1Cl (stereo not drawn) [Compound 225, {[8-(6-chloro-7-methoxycinnolin-4-yl)-2,8-diazaspiro[4.5]decan-2-yl](cyclopropyl)imino-λ^6-sulfanyl}one] | 0.096 nM | 6.8 nM |  |  |  | 
5 | COc1cccc2c(N3CCC(CS(C)(=N)=O)CC3)c(C#N)c(C)nc12 (stereo not drawn) [Compound 201, 4-(4-{[imino(methyl)oxo-λ^6-sulfanyl]methyl}piperidin-1-yl)-8-methoxy-2-methylquinoline-3-carbonitrile] | 0.69 nM | 12 nM |  |  |  | 
6 | COc1ccc2c(OCc3cc(S(C)(=N)=O)co3)ccnc2c1 (stereo not drawn) [Compound 170, imino(5-{[(7-methoxyquinolin-4-yl)oxy]methyl}furan-3-yl)methyl-λ^6-sulfanone] | 0.7 nM | 25 nM |  |  |  | 
7 | COc1cc2nccc(N3CC4(CC(CS(C)(=N)=O)C4)C3)c2cc1F (stereo not drawn) [Compound 184, {[2-(6-fluoro-7-methoxyquinolin-4-yl)-2-azaspiro[3.3]heptan-6-yl]methyl}(imino)methyl-λ^6-sulfanone] | 0.13 nM | 5.5 nM |  |  |  | 
8 | COc1cc2nccc(OCc3cccc(S(=N)(=O)C4CC4)c3)c2cc1F (stereo not drawn) [Compound 244, [cyclopropyl(3-{[(6-fluoro-7-methoxyquinolin-4-yl)oxy]methyl}phenyl)imino-λ^6-sulfanyl]one] | 0.018 nM | 0.55 nM |  |  |  | 
9 | COc1ccc2c(OCc3cc(F)cc(S(C)(=N)=O)c3)ccnc2c1 (stereo not drawn) [Compound 177, (3-fluoro-5-{[(7-methoxyquinolin-4-yl)oxy]methyl}phenyl)(imino)methyl-λ^6-sulfanone] | 0.03 nM | 1.5 nM |  |  |  | 
10 | COc1cc2ncnc(-c3ccc4c(c3)CN([S@](C)(=N)=O)CC4)c2cc1OC [Compound 37b] |  |  | 0.28 nM | 21 nM | < 3 nM | 
11 | COc1cc2nccc(N3CCC4(CC3)CCN(S(C)(=N)=O)C4)c2cc1Cl (stereo not drawn) [Compound 156, [8-(6-chloro-7-methoxyquinolin-4-yl)-2,8-diazaspiro[4.5]decan-2-yl](imino)methyl-λ^6-sulfanone] | 0.03 nM | 4.1 nM |  |  |  | < 3 nM
12 | COc1cccc2c(N3CCC(O)(CS(C)(=N)=O)CC3)c(C#N)cnc12 (stereo not drawn) [Compound 198, 4-(4-hydroxy-4-{[imino(methyl)oxo-λ^6-sulfanyl]methyl}piperidin-1-yl)-8-methoxyquinoline-3-carbonitrile] | 0.014 nM | 0.2 nM |  |  |  | 
13 | CCS(=N)(=O)N1CCC2(CCN(c3ncnc4cc(OC)c(OC)cc34)CC2)C1 (stereo not drawn) [Compound 159, [8-(6,7-dimethoxyquinazolin-4-yl)-2,8-diazaspiro[4.5]decan-2-yl](ethyl)imino-λ^6-sulfanone] | 0.025 nM | 3.6 nM |  |  |  | < 3 nM
14 | COc1cc2nnc(C)c(N3CCC4(CC3)CCN(S(C)(=N)=O)C4)c2cc1Cl (stereo not drawn) [Compound 220, [8-(6-chloro-7-methoxy-3-methylcinnolin-4-yl)-2,8-diazaspiro[4.5]decan-2-yl](imino)methyl-λ^6-sulfanone] | 0.25 nM | 11 nM |  |  |  | 
15 | COc1cc2ncnc(N3CCC4(CC3)CCN(S(C)(=N)=O)C4)c2cc1Cl (stereo not drawn) [Compound 212, [8-(6-chloro-7-methoxyquinazolin-4-yl)-2,8-diazaspiro[4.5]decan-2-yl](imino)methyl-λ^6-sulfanone] | 0.047 nM | 4.4 nM |  |  |  | 
16 | COc1cccc2c(N3CCC(O)(CS(C)(=N)=O)CC3)nc(C)nc12 (stereo not drawn) [Compound 199, {[4-hydroxy-1-(8-methoxy-2-methylquinazolin-4-yl)piperidin-4-yl]methyl}(imino)methyl-λ^6-sulfanone] | 0.43 nM | 8.8 nM |  |  |  | 
17 | COc1ccc2c(Oc3ccc(S(=N)(=O)C4CN(C(C)=O)C4)cc3)ccnc2c1 (stereo not drawn) [Compound 166, 1-[3-({4-[(7-methoxyquinolin-4-yl)oxy]phenyl}imino-λ^6-sulfanyl)azetidin-1-yl]ethan-1-one] | 3.1 nM | 230 nM |  |  |  | 
18 | COc1cc2ncnc(N3CCC4(CCC(S(C)(=N)=O)C4)CC3)c2cc1OC (stereo not drawn) [Compound 181, [8-(6,7-dimethoxyquinazolin-4-yl)-8-azaspiro[4.5]decan-2-yl](imino)methyl-λ^6-sulfanone] | 0.16 nM | 28 nM |  |  |  | 
19 | COc1cccc2c(N3CCC(O)(CS(=N)(=O)C4CC4)CC3)ncnc12 (stereo not drawn) [Compound 193, cyclopropyl({[4-hydroxy-1-(8-methoxyquinazolin-4-yl)piperidin-4-yl]methyl})imino-λ^6-sulfanone] | 0.023 nM | 0.62 nM |  |  |  | 
20 | COc1cc2nccc(N3CCC4(CC3)CCN(S(C)(=N)=O)C4)c2cc1F (stereo not drawn) [Compound 205, [8-(6-fluoro-7-methoxyquinolin-4-yl)-2,8-diazaspiro[4.5]decan-2-yl](imino)methyl-λ^6-sulfanone] | 0.032 nM | 2.2 nM |  |  |  | 
21 | COc1cc2nccc(N3CCC4(CC3)CCN(S(C)(=N)=O)C4)c2cc1C#N (stereo not drawn) [Compound 226, 4-{2-[imino(methyl)oxo-λ^6-sulfanyl]-2,8-diazaspiro[4.5]decan-8-yl}-7-methoxyquinoline-6-carbonitrile] | 1.2 nM | 43 nM |  |  |  | 
22 | COc1cccc2c(N3CC4(CCN(S(C)(=N)=O)C4)C3)c(C#N)cnc12 (stereo not drawn) [Compound 222, 4-{6-[imino(methyl)oxo-λ^6-sulfanyl]-2,6-diazaspiro[3.4]octan-2-yl}-8-methoxyquinoline-3-carbonitrile] | 0.07 nM | 1.1 nM |  |  |  | 
23 | COc1ccc2c(COc3ccc(S(C)(=N)=O)cc3)ccnc2c1 (stereo not drawn) [Compound 231, imino({4-[(7-methoxyquinolin-4-yl)methoxy]phenyl})methyl-λ^6-sulfanone] | 1.2 nM | 56 nM |  |  |  | 
24 | COc1ccc2c(N3CCC(CCS(C)(=N)=O)CC3)c(C#N)cnc2c1 (stereo not drawn) [Compound 143, 4-(4-{2-[imino(methyl)oxo-λ6-sulfanyl]ethyl}piperidin-1-yl)-7-methoxyquinoline-3-carbonitrile] | 1 nM | 180 nM |  |  |  | < 3 nM
25 | COc1cc2ncnc(N3CCC4(CC3)CCN(S(C)(=N)=O)C4)c2cc1F (stereo not drawn) [Compound 224, [8-(6-fluoro-7-methoxyquinazolin-4-yl)-2,8-diazaspiro[4.5]decan-2-yl](imino)methyl-λ^6-sulfanone] | 0.019 nM | 1.1 nM |  |  |  | 
26 | COc1cc2nccc(OCc3cccc(S(C)(=N)=O)c3)c2cc1F (stereo not drawn) [Compound 169, (3-{[(6-fluoro-7-methoxyquinolin-4-yl)oxy]methyl}phenyl)(imino)methyl-λ^6-sulfanone] | 0.051 nM | 1.5 nM |  |  |  | 
27 | COc1cc2nccc(N3CCC4(CC3)CCN(S(C)(=N)=O)C4)c2cc1OC (stereo not drawn) [Compound 208, [8-(6,7-dimethoxyquinolin-4-yl)-2,8-diazaspiro[4.5]decan-2-yl](imino)methyl-λ^6-sulfanone] | 0.021 nM | 0.21 nM |  |  |  | 
28 | COc1cccc2c(N3CCC4(C3)CN(S(C)(=N)=O)C4)ncnc12 (stereo not drawn) [Compound 223, imino[6-(8-methoxyquinazolin-4-yl)-2,6-diazaspiro[3.4]octan-2-yl]methyl-λ^6-sulfanone] | 0.11 nM | 3.2 nM |  |  |  | 

More lines, now with the values ahead:

Row | Ki (ENPP-1 ECD; [2]) | Ki [1] | Ki (ENPP-1 ECD; [3]) | Ki [1, 4] | Ki (ENPP-1 ECD; [5]) | Ki (ENPP-1 ECD; [6]) | Structure (SMILES)
29 |  |  | 0.014 nM | 0.63 nM |  |  | COc1cccc2c(N3CCC(C[S@](C)(=N)=O)CC3)c(C#N)cnc12 [Compound 179b]
30 |  |  | 0.016 nM | 1.7 nM | < 3 nM |  | COc1cc2nccc(N3CCC4(CC3)CCN([S@@](C)(=N)=O)C4)c2cc1Cl [Compound 156a]
31 |  |  | 0.005 nM | 0.17 nM |  |  | COc1cc2ncnc(N3CC4(CC(C[S@](C)(=N)=O)C4)C3)c2cc1OC [Compound 237b]
32 |  |  | 0.0057 nM | 0.12 nM |  |  | COc1cc2nccc(N3CCC4(CC3)CCN([S@@](C)(=N)=O)C4)c2cc1F [Compound 205b]
33 |  |  | 1.1 nM | 55 nM |  |  | COc1cc2nccc(N3CCC4(CC3)CCN([S@@](C)(=N)=O)C4)c2cc1OC [Compound 208a]
34 |  |  | 0.38 nM | 6.6 nM |  |  | COc1cc2nccc(OC[C@H]3CCN([S@@](C)(=N)=O)C3)c2cc1F [Compound 230b]
35 |  |  | 2.5 nM | 58 nM |  |  | COc1cc2nccc(N3CC4(CC(C[S@](C)(=N)=O)C4)C3)c2cc1F [Compound 184b]
36 |  |  | 0.0085 nM | 0.48 nM |  |  | COc1ccc2c(OCc3cc(F)cc([S@](C)(=N)=O)c3)ccnc2c1 [Compound 177b]
37 |  |  | 0.018 nM | 1.5 nM |  |  | COc1cc2nccc(OCc3cccc([S@](C)(=N)=O)c3)c2cc1F [Compound 169b]
38 |  |  | 0.0025 nM | 0.086 nM |  |  | COc1cccc2c(N3CCC(O)(C[S@@](C)(=N)=O)CC3)c(C#N)cnc12 [Compound 198a]
